Values quoted from earlier work in patent publication US20260232582A1, “PHARMACEUTICAL COMPOSITION OF ENSIFENTRINE WITH PHARMACEUTICALLY ACCEPTABLE PROPELLANTS” (CIPLA LIMITED, priority 2023, published 2026).

Columns and labels:
subjects = settings: clinical trials involving more than 2,200 subjects
COPD patients = settings: Phase 2; DPI and pMDI formulations

For `COc1cc2c(cc1OC)-c1c/c(=N\c3c(C)cc(C)cc3C)n(CCNC(N)=O)c(=O)n1CC2` [Ensifentrine], the “Tolerability in clinical trials” value (subjects) is listed as “well tolerated”, the “Primary endpoint (improvements in lung function)” value (COPD; nebulized, both ENHANCE-1 and ENHANCE-2 trials) is listed as “met the primary endpoint” and the “Rate and risk of COPD exacerbations” value (COPD; pooled analysis from ENHANCE-1 and ENHANCE-2) is listed as “significantly reduced”. The “Lung function in COPD patients” value (COPD patients) was “significant improvements in lung function”.
